From patent US9187435B2, “Bridged Spiro[2.4]heptane ester derivatives” (Actelion Pharmaceuticals Ltd., priority 2010, dated 2015)
pEC50: −log10 of the molar value. Where a name gives a salt, the structure may show the parent alone.

Molecular target: T1, human ALX receptor (Homo sapiens, UniProt P25090)
T1 construct: expressed in transfected cells; host or cells: HEK293 (HEK293-hALXR-Gα16)
T1 sequence (P25090 1-351): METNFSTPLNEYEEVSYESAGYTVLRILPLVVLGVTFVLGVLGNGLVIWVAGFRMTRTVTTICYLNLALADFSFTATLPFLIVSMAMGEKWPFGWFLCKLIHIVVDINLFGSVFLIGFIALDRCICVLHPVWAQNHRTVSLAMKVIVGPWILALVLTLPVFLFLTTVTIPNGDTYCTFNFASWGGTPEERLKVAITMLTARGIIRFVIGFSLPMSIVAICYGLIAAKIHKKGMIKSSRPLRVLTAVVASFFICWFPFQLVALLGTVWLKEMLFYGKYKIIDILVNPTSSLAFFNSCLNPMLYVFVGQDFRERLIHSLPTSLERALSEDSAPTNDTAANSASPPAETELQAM
Assay: Intracellular calcium measurements (FLIPR) in HEK293-hALXR-Gα16 cells, agonistic activity
Assay type: cell-based
Details: values normalized to WKYMVm 10 nM
How it was run: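 HEK293 cells co-expressing human ALX receptor and Gα16, loaded with 1 μM Fluo-4 AM (60 min, 37 °C), then exposed to serially diluted compound. Peak fluorescence above baseline (ex 488/em 540 nm) was recorded after compound addition. Values were normalized to 10 nM WKYMVm as the high control, after subtracting the buffer-addition baseline.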

Cc1cc(CNC(=O)[C@H]2[C@H](C(=O)OCCOCCN3CC[C@H](F)C3)[C@H]3CC[C@@H]2C32CC2)no1 [Example 34, (1S,2R,3R,4R)-[(S)-2-(2-(3-Fluoropyrrolidin-1-yl)ethoxy)ethyl 2-(((5-methylisoxazol-3-yl)methyl)carbamoyl)spiro[bicyclo[2.2.1]heptane-7,1′-cyclopropane]-3-carboxylate]]
pEC50: 7.67

Cc1cc(CNC(=O)[C@H]2[C@H](C(=O)OCCC3(F)CCNCC3)[C@H]3CC[C@@H]2C32CC2)on1 [Example 49, (1S,2R,3R,4R)-[2-(4-Fluoro-piperidin-4-yl)ethyl 2-(((3-methylisoxazol-5-yl)methyl)carbamoyl)spiro[bicyclo[2.2.1]heptane-7,1′-cyclopropane]-3-carboxylate]]
pEC50: 7.98

O=C(OC1CCN(Cc2ccccc2)CC1)[C@H]1[C@H](C(=O)Nc2ccc(Br)nc2)[C@@H]2CC[C@H]1C21CC1 [Example 76, (1S,2R,3R,4R)-[1-Benzyl-piperidin-4-yl 2-((6-bromopyridin-3-yl)carbamoyl)spiro[bicyclo[2.2.1]heptane-7,1′-cyclopropane]-3-carboxylate]]
pEC50: 5.69

O=C(Nc1ccc(Br)cc1)C1C(C(=O)OCC2CCNCC2)C2C=CC1C21CC1 [Example 35, (1R,4S,5R,6R)-[Piperidin-4-ylmethyl 5-((4-bromophenyl)carbamoyl)spiro[bicyclo[2.2.1]hept[2]ene-7,1′-cyclopropane]-6-carboxylate]]
pEC50: 8.54

Cc1cc(CNC(=O)[C@H]2[C@H](C(=O)OCC[C@H]3CCNC[C@H]3F)[C@H]3CC[C@@H]2C32CC2)on1 (relative stereo) [Example 39, (1S,2R,3R,4R)-[2-(cis-3-Fluoro-piperidin-4-yl)ethyl 2-(((3-methylisoxazol-5-yl)methyl)carbamoyl)spiro[bicyclo[2.2.1]heptane-7,1′-cyclopropane]-3-carboxylate]]
pEC50: 8.43

O=C(OCCC1(F)CCNCC1)[C@H]1[C@H](C(=O)Nc2ccc(Br)nc2)[C@@H]2CC[C@H]1C21CC1 [Example 40, (1S,2R,3R,4R)-[2-(4-Fluoro-piperidin-4-yl)ethyl 2-((6-bromopyridin-3-yl)carbamoyl)spiro[bicyclo[2.2.1]heptane-7,1′-cyclopropane]-3-carboxylate]]
pEC50: 8.34

Cc1cc(CNC(=O)[C@H]2[C@H](C(=O)O[C@H]3CCNC[C@H]3F)[C@H]3CC[C@@H]2C32CC2)on1 (relative stereo) [Example 62, (1S,2R,3R,4R)-[cis-(3-Fluoro-piperidin-4-yl) 2-(((3-methylisoxazol-5-yl)methyl)carbamoyl)spiro[bicyclo[2.2.1]heptane-7,1′-cyclopropane]-3-carboxylate]]
pEC50: 7.11

Cc1cc(CNC(=O)[C@H]2[C@H](C(=O)OCCN3CCNCC3)[C@H]3CC[C@@H]2C32CC2)no1 [Example 63, (1S,2R,3R,4R)-[2-(piperazin-1-yl)ethyl 2-(((5-methylisoxazol-3-yl)methyl)carbamoyl)spiro[bicyclo[2.2.1]heptane-7,1′-cyclopropane]-3-carboxylate]]
pEC50: 7.10

Cc1cc(CNC(=O)[C@H]2[C@H](C(=O)OCCC(N)=O)[C@H]3CC[C@@H]2C32CC2)on1 [Example 65, (1S,2R,3R,4R)-[(3-Amino-3-oxopropyl) 2-(((3-methylisoxazol-5-yl)methyl)carbamoyl)spiro[bicyclo[2.2.1]heptane-7,1′-cyclopropane]-3-carboxylate]]
pEC50: 6.97

O=C(OCC[C@H]1CCNC[C@H]1F)[C@H]1[C@H](C(=O)Nc2ccc(Br)nc2)[C@@H]2CC[C@H]1C21CC1 (relative stereo) [Example 38, (1S,2R,3R,4R)-[2-(cis-3-Fluoro-piperidin-4-yl)ethyl 2-((6-bromopyridin-3-yl)carbamoyl)spiro[bicyclo[2.2.1]heptane-7,1′-cyclopropane]-3-carboxylate]]
pEC50: 8.74

O=C(O[C@@H]1CCNC[C@H]1F)[C@H]1[C@H](C(=O)Nc2ccc(Br)nc2)[C@@H]2CC[C@H]1C21CC1 (relative stereo) [Example 57, (1S,2R,3R,4R)-[(trans-3-Fluoro-piperidin-4-yl) 2-((6-bromopyridin-3-yl)carbamoyl)spiro[bicyclo[2.2.1]heptane-7,1′-cyclopropane]-3-carboxylate]]
pEC50: 7.48

O=C(OCCN1CCCC1=O)[C@H]1[C@H](C(=O)Nc2ccc(Br)nc2)[C@@H]2CC[C@H]1C21CC1 [Example 23, (1S,2R,3R,4R)-[2-(2-Oxopyrrolidin-1-yl)ethyl 2-((6-bromopyridin-3-yl)carbamoyl)spiro[bicyclo[2.2.1]heptane-7,1′-cyclopropane]-3-carboxylate]]
pEC50: 6.55

O=C(OC1CCNCC1)[C@H]1[C@H](C(=O)Nc2ccc(Br)nc2)[C@@H]2CC[C@H]1C21CC1 [Example 2, (1S,2R,3R,4R)-[Piperidin-4-yl 2-((6-bromopyridin-3-yl)carbamoyl)spiro[bicyclo[2.2.1]heptane-7,1′-cyclopropane]-3-carboxylate]]
pEC50: 7.82

O=C(OC[C@@H]1CCNC[C@H]1F)[C@H]1[C@H](C(=O)Nc2ccc(Br)nc2)[C@@H]2CC[C@H]1C21CC1 (relative stereo) [Example 70, (1S,2R,3R,4R)-[(trans-3-Fluoro-piperidin-4-yl)methyl 2-((6-bromopyridin-3-yl)carbamoyl)spiro[bicyclo[2.2.1]heptane-7,1′-cyclopropane]-3-carboxylate]]
pEC50: 6.80

O=C(OCC[C@@H]1CCCCN1)[C@H]1[C@H](C(=O)Nc2ccc(Br)nc2)[C@@H]2CC[C@H]1C21CC1 [Example 11, (1S,2R,3R,4R)-[(S)-2-(Piperidin-2-yl)ethyl 2-((6-bromopyridin-3-yl)carbamoyl)spiro[bicyclo[2.2.1]heptane-7,1′-cyclopropane]-3-carboxylate]hydrochloride]
pEC50: 8.06

Cc1cc(CNC(=O)[C@H]2[C@H](C(=O)OCC(C)C)[C@H]3CC[C@@H]2C32CC2)no1 [Example 28, (1S,2R,3R,4R)-[Isobutyl 2-(((5-methylisoxazol-3-yl)methyl)carbamoyl)spiro[bicyclo[2.2.1]heptane-7,1′-cyclopropane]-3-carboxylate]]
pEC50: 6.13

O=C(OCCOCCN1CC[C@H](F)C1)[C@H]1[C@H](C(=O)NCc2ccc(Br)cc2F)[C@@H]2CC[C@H]1C21CC1 [Example 69, (1S,2R,3R,4R)-[(S)-2-(2-(3-Fluoropyrrolidin-1-yl)ethoxy)ethyl 2-((4-bromo-2-fluorobenzyl)carbamoyl)spiro[bicyclo[2.2.1]heptane-7,1′-cyclopropane]-3-carboxylate]]
pEC50: 6.84

CN(C)CCCOC(=O)[C@H]1[C@H](C(=O)Nc2ccc(Br)nc2)[C@@H]2CC[C@H]1C21CC1 [Example 21, (1S,2R,3R,4R)-[1-Dimethylaminoprop-3-yl 2-((6-bromopyridin-3-yl)carbamoyl)spiro[bicyclo[2.2.1]heptane-7,1′-cyclopropane]-3-carboxylate]]
pEC50: 6.84

O=C(OCCC1CCNCC1)[C@H]1[C@H](C(=O)NCc2ccc(Br)cc2F)[C@@H]2CC[C@H]1C21CC1 [Example 72, (1S,2R,3R,4R)-[2-(Piperidin-4-yl)ethyl 2-((4-bromo-2-fluorobenzyl)carbamoyl)spiro[bicyclo[2.2.1]heptane-7,1′-cyclopropane]-3-carboxylate]hydrochloride]
pEC50: 6.58

O=C(OCCCC(=O)N1CCCC1)[C@H]1[C@H](C(=O)Nc2ccc(Br)nc2)[C@@H]2CC[C@H]1C21CC1 [Example 67, (1S,2R,3R,4R)-[(4-Pyrrolidino-4-oxobutyl) 2-((6-bromopyridin-3-yl)carbamoyl)spiro[bicyclo[2.2.1]heptane-7,1′-cyclopropane]-3-carboxylate]]
pEC50: 6.90

Cc1cc(CNC(=O)[C@H]2[C@H](C(=O)OCCOCCN3CC[C@H](F)C3)[C@H]3CC[C@@H]2C32CC2)on1 [Example 42, (1S,2R,3R,4R)-[(S)-2-(2-(3-Fluoropyrrolidin-1-yl)ethoxy)ethyl 2-(((3-methylisoxazol-5-yl)methyl)carbamoyl)spiro[bicyclo[2.2.1]heptane-7,1′-cyclopropane]-3-carboxylate]]
pEC50: 8.14
